Our source for the MIC values is patent publication EP0677522A1, “8-METHOXYQUINOLONECARBOXYLIC ACID DERIVATIVE” (priority 1992, dated 1994).

Holding throughout (assay): In vitro antibacterial activity (MIC), Japan Society of Chemotherapy Standard
What all share (assay type): cell-based

Assay [1] concerns Enterobacter cloacae IFO 12937. Particulars: IFO12937, inoculated cells 10⁶ cells/ml. As to the method: (§1) The in vitro antibacterial activity (minimum inhibitory concentration, MIC, µg/ml) of the test compounds was determined according to Japan Society of Chemotherapy Standard [Chemotherapy, vol. 29, pp 76-79 (1981)].
(§2) Inoculated cells were 10⁶ cells/ml and the strain with * was incubated in a medium supplemented with 10% horse blood. The mark "1)" means quinolone resistant MRSA and "2)" means quinolone resistant bacteria.

The subject of assay [2] is Enterococcus faecalis LS-101. The note with it: LS101, inoculated cells 10⁶ cells/ml. As to the method: as §1, §2
Assay [3] concerns Escherichia coli NIHJ JC-2. The note with it: NIHJJC2, inoculated cells 10⁶ cells/ml. As to the method:
as §1, §2

For a further assay, the system named is K.pneumoniae DT-S. Particulars: Klebsiella pneumoniae; inoculated cells 10⁶ cells/ml. The procedure:
as §1, §2

In the next assay the test system is P. mirabilis IFO 3849. Particulars: Proteus mirabilis, IFO3849; inoculated cells 10⁶ cells/ml. The procedure: as §1, §2
A further assay concerns P.aeruginosa U-31. The note with it: Pseudomonas aeruginosa, U31; inoculated cells 10⁶ cells/ml. The procedure:
as §1, §2

In assay [4] the test system is Proteus vulgaris IFO 3988. Particulars: IFO3988, inoculated cells 10⁶ cells/ml. The procedure: as §1, §2
The test system of assay [5] is S. epidermidis ATCC 12228. The note with it: Staphylococcus epidermidis, ATCC12228; inoculated cells 10⁶ cells/ml. The procedure:
as §1, §2

In assay [6] the test system is Serratia marcescens IFO 12648. The note with it: IFO12648, inoculated cells 10⁶ cells/ml. As to the method: as §1, §2
A further assay deals with Shigella flexneri EW-10. Particulars: EW10, inoculated cells 10⁶ cells/ml. The procedure:
as §1, §2

The test system of assay [7] is Staphylococcus aureus FDA 209P. The note with it: FDA209P, inoculated cells 10⁶ cells/ml. As to the method:
as §1, §2

Assay [8] has as its system A.calcoaceticus IFO 13006. The note with it: Acinetobacter calcoaceticus, IFO13006; inoculated cells 10⁶ cells/ml. The procedure:
as §1, §2

Assay [9] relates to Citrobacter freundii IFO 12681. The note with it: IFO12681, inoculated cells 10⁶ cells/ml. As to the method:
as §1, §2

Another assay deals with E. avium EAY-30. Particulars: Enterococcus avium, EAY30, inoculated cells 10⁶ cells/ml. The procedure:
as §1, §2

Another assay has as its system E. faecium EFMY-28. Particulars: Enterococcus faecium, EFMY28; inoculated cells 10⁶ cells/ml. The procedure:
as §1, §2

For the next assay, the system named is L.monocytogenes VTU-206. Particulars: Listeria monocytogenes, VTU206; inoculated cells 10⁶ cells/ml; medium supplemented with 10% horse blood. As to the method: as §1, §2
In the next assay the test system is M.catarrhalis ATCC 25238. The note with it: Moraxella catarrhalis, ATCC25238; inoculated cells 10⁶ cells/ml; medium supplemented with 10% horse blood. As to the method:
as §1, §2

Another assay relates to S. aureus No.88. The note with it: Staphylococcus aureus; quinolone resistant MRSA; inoculated cells 10⁶ cells/ml. As to the method:
as §1, §2

Another assay deals with S. pneumoniae Type-III. Particulars: Streptococcus pneumoniae; inoculated cells 10⁶ cells/ml; medium supplemented with 10% horse blood. The procedure:
as §1, §2

Assay [10] has as its system Streptococcus pyogenes C-203. The note with it: C203, inoculated cells 10⁶ cells/ml, medium supplemented with 10% horse blood. The procedure: as §1, §2

Converted amounts (≈) assume the structure as drawn.

For `COc1c(N2CCC(N)(CN)CC2)c(F)cc2c(=O)c(C(=O)O)cn(C3CC3)c12` [Comp. Ex. 1, 7-(4-amino-4-aminomethylpiperidin-1-yl)-1-cyclopropyl-6-fluoro-1,4-dihydro-8-methoxy-4-oxo-3-quinolinecarboxylic acid, reference compound], the MIC (commonly the lowest concentration that inhibits growth of the organism) turned out to be 12.5 µg/mL (≈ 30.9 µM) in [1]; 1.56 µg/mL (≈ 3.86 µM) in assay [2]; 1.56 µg/mL (≈ 3.86 µM) in assay [3]; 6.25 µg/mL (≈ 15.5 µM) against K.pneumoniae DT-S; 25 µg/mL (≈ 61.8 µM) in the assay with P. mirabilis IFO 3849; 12.5 µg/mL (≈ 30.9 µM) against P.aeruginosa U-31. Further, the MIC in assay [4] was found to be 25 µg/mL (≈ 61.8 µM); in assay [5], 0.78 µg/mL (≈ 1.93 µM); in [6], 6.25 µg/mL (≈ 15.5 µM); against Shigella flexneri EW-10, 0.39 µg/mL (≈ 0.964 µM); in [7], 0.1 µg/mL (≈ 0.247 µM).

For `COc1c(N2CCC(N)(CF)C2)c(F)cc2c(=O)c(C(=O)O)cn(C3CC3)c12` (stereo not shown) [Example 1, 7-(3-amino-3-fluoromethylpyrrolidin-1-yl)-1-cyclopropyl-6-fluoro-1,4-dihydro-8-methoxy-4-oxo-3-quinolinecarboxylic acid], the minimum inhibitory concentration (MIC) in assay [8] was 0.05 µg/mL (≈ 0.127 µM); in assay [9], 0.05 µg/mL (≈ 0.127 µM); in the assay on E. avium EAY-30, 0.1 µg/mL (≈ 0.254 µM); in the assay with E. faecium EFMY-28 it was 0.2 µg/mL (≈ 0.508 µM); in assay [1], 0.2 µg/mL (≈ 0.508 µM); in [2], 0.012 µg/mL (≈ 0.0305 µM). For the same compound, the MIC in assay [3] stood at 0.025 µg/mL (≈ 0.0636 µM); with K.pneumoniae DT-S, 0.025 µg/mL (≈ 0.0636 µM); in the assay on L.monocytogenes VTU-206 it was 0.1 µg/mL (≈ 0.254 µM); in the assay on M.catarrhalis ATCC 25238, 0.012 µg/mL (≈ 0.0305 µM); in the assay on P. mirabilis IFO 3849, 0.39 µg/mL (≈ 0.991 µM); against P.aeruginosa U-31 it was 0.39 µg/mL (≈ 0.991 µM). Further, the MIC in assay [4] was 0.2 µg/mL (≈ 0.508 µM); in the assay on S. aureus No.88 it was 0.39 µg/mL (≈ 0.991 µM); in assay [5] it was 0.012 µg/mL (≈ 0.0305 µM); in the assay on S. pneumoniae Type-III, 0.012 µg/mL (≈ 0.0305 µM); in assay [6], 0.2 µg/mL (≈ 0.508 µM); against Shigella flexneri EW-10 it was at most 0.006 µg/mL. Moreover, the MIC in [7] was at most 0.006 µg/mL; in [10], 0.05 µg/mL (≈ 0.127 µM).
